Laboratory results taken from BindingDB's records for doi:10.1021/jm00128a043 (Wellcome Research Laboratories, 1989).

How the values were obtained:
[1] = Inhibition of Staphylococcus aureus DHFR
[2] = Antibacterial activity against Staphylococcus aureus

Row | SMILES | Ki [1] [nM] | Ki [2] [nM]
1 | C=CCc1cc(Cc2cnc(N)nc2N)cc(OC)c1OC | 2.8 | 
2 | CCCOc1cc(Cc2cnc(N)nc2N)cc(OC)c1OC | 1.4 | 
3 | C=CCOc1cc(Cc2cnc(N)nc2N)cc(OC)c1OC |  | 3
4 | CCCc1cc(Cc2cnc(N)nc2N)cc(CCC)c1OC |  | 3.2

Continued, values first:

Row | Ki [1] [nM] | Ki [2] [nM] | SMILES
5 | 1.4 |  | C/C=C/c1cc(Cc2cnc(N)nc2N)cc(OC)c1OC
6 | 2.5 |  | CCOc1cc(Cc2cnc(N)nc2N)cc(OC)c1OC
